Read-outs that look alike come from different tables or passages of the source.
How the values were obtained:
WI-38 cells [1] = experiment: Propidium iodide (PI) cell-death imaging upon H2O2 stress; assay type: cell-based, human; conditions: for Assay 7: H2O2-resistant, at 10 uM, validated by propidium iodide (PI) cell-death imaging: w/H2O2, 3 hrs/4 hrs/5 hrs, YES/NO; for cytotoxicity at 10 µM: Homo sapiens, WI-38
WI-38 cells [2] = experiment: CdCl2 (cadmium) resistance assay; assay type: cell-based, human; conditions: for fold induction at 10 µM: Homo sapiens, 12 h, normalized ATP measurement; for Assay 4: H2O2- & Cd-resistant / Assay 2: Cadmium-resistant: YES/NO; for Assay 2: Cadmium-resistant: * indicates partial
Summary of the method: (§1)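 Resistance to CdCl2 or MMS stress (12 h exposure) was scored in WI-38 fibroblasts pretreated with compound at 0.25–20 μM final, five doses, technical triplicates. MMS plates had compound added 24 h before MMS, after a shift to serum-free DMEM+2% BSA. Significance came from a global variance t-test over two independent runs.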

WI-38 cells [3] = experiment: MMS resistance assay; assay type: cell-based, human; conditions: for fold induction at 10 µM: Homo sapiens, 12 h, normalized ATP measurement
Summary of the method: as §1

[4] = system: human dermal fibroblast (HDF) primary cells; experiment: H2O2-resistance in primary human dermal fibroblasts; assay type: cell-based; conditions: for fold induction at 10 µM: Homo sapiens; for Assay 6: H2O2-resistant, at 10 uM, human dermal fibroblast (HDF) primary cells: YES/NO
C. elegans = assay type: in vivo, Caenorhabditis elegans; conditions: in vivo
Summary of the method: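 Survival under oxidative stress: 500 μM H2O2 (final) was added to day-4 adults kept in liquid with compounds, FUdR present, 4 wells per molecule and 0.2% DMSO controls, with daily scoring of viability.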

WI-38 cells [5] = experiment: Long-term effects on cell viability (5 days, ATP; morphology, PI imaging); assay type: cell-based; conditions: 10 μM; for Luminescence signal for ATP measurement, day-1 Average / Luminescence signal for ATP measurement, day-2 Average / Luminescence signal for ATP measurement, day-3 Average / Luminescence signal for ATP measurement, day-4 Average / Luminescence signal for ATP measurement, day-5 Average / viability at 10 µM: Batch 1; for Luminescence signal for ATP measurement, day-1 Average / Luminescence signal for ATP measurement, day-2 Average / Luminescence signal for ATP measurement, day-3 Average / Luminescence signal for ATP measurement, day-4 Average / Luminescence signal for ATP measurement, day-5 Average: n = 6, day-0 luminescence = 320956 ± 24708; for viability at 10 µM: Homo sapiens, WI-38, 120 h, DMSO ctrl = 100.0%, read-out: ATP luminescence by day-5 normalized; for Luminescence signal for ATP measurement, day-5 Average / viability at 10 µM: day-5; for O = Potential toxicity / Q = Potential toxicity: human, 5 days;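 for Luminescence signal for ATP measurement, day-2 Average: compounds at 10 µM with ATP read daily over 5 days of treatment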;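 for Luminescence signal for ATP measurement, day-3 Average: compounds at 10 µM with ATP read daily over 5 days of treatment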;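 for Luminescence signal for ATP measurement, day-4 Average: compounds at 10 µM with ATP read daily over 5 days of treatment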;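 for Luminescence signal for ATP measurement, day-5 Average: compounds at 10 µM with ATP read daily over 5 days of treatment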
[6] = Summary score for characterization of 38 core set hits; conditions: for D = Triple resistant: 2-point score, multiplex resistance (cadmium, MMS, H2O2); for S = Sum of Negative scores: human; for C = H2O2- & Cd-resistant: score, resistance to both H2O2 and cadmium
Summary of the method: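 Hits from a small-molecule screen for H2O2 resistance were scored across characterization assays. Multiplex resistance, FOXO3 and/or NRF2 activation and mTOR down-regulation each earned 2 points. C. elegans lifespan, tested in 4 to 6 independent trials, scored 0–2, and DNA-damaging or cytotoxic effects in cultured human cells cost one point.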

[7] = H2O2 3 hrs, 10 uM, n = 6, negative control 5.44% ± 0.79%, read-out: Percentage of propidium iodide-positive dead cells (under H2O2 stress treatment), 3 hrs
[8] = H2O2 4 hrs, 10 uM, n = 6, negative control 16.81% ± 1.42%, read-out: Percentage of propidium iodide-positive dead cells (under H2O2 stress treatment), 4 hrs
[9] = pre-treatment at 10 uM, 3.5 hours of H2O2, DMSO control 27.4% ± 6.5%, */**/*** = reduced by one/two/three standard deviations, read-out: Percentage of propidium iodide-positive dead cells (under H2O2 stress treatment), at 10 uM
[10] = Exp. 1, WI-38 cells, read-out: Exp. 1, under Cd2Cl2 stress treatment, at 10 uM (fold change)
[11] = Exp. 2, WI-38 cells, read-out: Exp. 2, under Cd2Cl2 stress treatment, at 10 uM (fold change)
[12] = WI-38 cells, 10 μM, both stressors
[13] = score in summary of 38 core set hits
[14] = Exp. 1, WI-38 cells, read-out: Exp. 1, under MMS stress treatment, at 10 uM (fold change)
[15] = Exp. 2, WI-38 cells, read-out: Exp. 2, under MMS stress treatment, at 10 uM (fold change)
[16] = Experiment 1, HDF cells, read-out: Experiment 1, HDF cells (under H2O2 stress treatment), at 10 uM (fold change)
[17] = Experiment 2, HDF cells, read-out: Experiment 2, HDF cells (under H2O2 stress treatment), at 10 uM (fold change)
[18] = H2O2 5 hrs, 10 uM, n = 6, negative control 22.50% ± 1.53%, read-out: Percentage of propidium iodide-positive dead cells (under H2O2 stress treatment), 5 hrs

| SMILES | Assay 7: H2O2-resistant, at 10 uM, validated by propidium iodide (PI) cell-death imaging (WI-38 cells [1]; 10 uM) | cytotoxicity at 10 µM (WI-38 cells [1]; [7]) | cytotoxicity at 10 µM (WI-38 cells [1]; [9]) | fold induction at 10 µM (WI-38 cells [2]; [10]) | fold induction at 10 µM (WI-38 cells [2]; [11]) | A = Cadmium resistant (WI-38 cells [2]; [13]) | A = Cadmium resistant (WI-38 cells [2]; summary score) | C = H2O2- & Cd-resistant (WI-38 cells [2]; summary score) | fold induction at 10 µM (WI-38 cells [3]; [14]) | fold induction at 10 µM (WI-38 cells [3]; [15]) | B = MMS resistant (WI-38 cells [3]; [13]) | B = MMS resistant (WI-38 cells [3]; summary score) | D = Triple resistant (WI-38 cells [3]; summary score) | fold induction at 10 µM [4, 16] | fold induction at 10 µM [4, 17] | Assay 6: H2O2-resistant, at 10 uM, human dermal fibroblast (HDF) primary cells [4] | L = H2O2-resistance in worms (C. elegans) | N = H2O2-resistance in woms (C. elegans) | O = Potential toxicity (WI-38 cells [5]) | Q = Potential toxicity (WI-38 cells [5]) | other results |
| --- | --- | --- | --- | --- | --- | --- | --- | --- | --- | --- | --- | --- | --- | --- | --- | --- | --- | --- | --- | --- | --- |
| O=C(Nc1nc(C23CC4CC(CC(C4)C2)C3)cs1)C(c1ccccc1)c1ccccc1 [O10] | YES | 2.19% | 3.6% | 2.73 | 2 | 1 | 1 | 1 | 1.08 | 4.08 | 0 | 0 | 0 | 12.6 | 8.91 | YES | 0 | 0 | 0 | 0 | cytotoxicity at 10 µM (WI-38 cells [1]; [8]): 4.27%; CdCl2-resistant (WI-38 cells [2]): YES; H2O2- & CdCl2-resistant (WI-38 cells [2]): YES; CdCl2-resistant (WI-38 cells [2]; WI-38 cells, 10 μM): YES; H2O2- & CdCl2-resistant (WI-38 cells [2]; [12]): YES; Assay 4: H2O2- & Cd-resistant (WI-38 cells [2]): YES; Assay 2: Cadmium-resistant (WI-38 cells [2]): YES; Luminescence signal for ATP measurement, day-1 Average (WI-38 cells [5]): 560153; Luminescence signal for ATP measurement, day-2 Average (WI-38 cells [5]): 740923; Luminescence signal for ATP measurement, day-3 Average (WI-38 cells [5]): 847945; Luminescence signal for ATP measurement, day-4 Average (WI-38 cells [5]): 1079863; Luminescence signal for ATP measurement, day-5 Average (WI-38 cells [5]): 1066130; viability at 10 µM (WI-38 cells [5]): 104%; D = Triple resistant [6]: 0; S = Sum of Negative scores [6]: 0; C = H2O2- & Cd-resistant [6]: 1 |
| CCc1ccc(Oc2nc3ccccn3c(=O)c2/C=C(\C#N)C(=O)NC2CCCCC2)cc1 [Gr-5A] | YES | 1.64% | 3.7% | 4.12 | 2.4 | 1 | 0 | 0 | 0.83 | 1.49 | 0 | 0 | 0 | 2.95 | 2 | YES | 0 | 0 | 0 | 0 | cytotoxicity at 10 µM (WI-38 cells [1]; [8]): 8.97%; CdCl2-resistant (WI-38 cells [2]): YES; H2O2- & CdCl2-resistant (WI-38 cells [2]): YES; CdCl2-resistant (WI-38 cells [2]; WI-38 cells, 10 μM): YES; H2O2- & CdCl2-resistant (WI-38 cells [2]; [12]): YES; H2O2-resistance assay, 1st experiment (C. elegans): YES;; Luminescence signal for ATP measurement, day-1 Average (WI-38 cells [5]): 527000; Luminescence signal for ATP measurement, day-2 Average (WI-38 cells [5]): 728148; Luminescence signal for ATP measurement, day-3 Average (WI-38 cells [5]): 837593; Luminescence signal for ATP measurement, day-4 Average (WI-38 cells [5]): 1074220; Luminescence signal for ATP measurement, day-5 Average (WI-38 cells [5]): 1082445; viability at 10 µM (WI-38 cells [5]): 105%; D = Triple resistant [6]: 0; S = Sum of Negative scores [6]: 0; C = H2O2- & Cd-resistant [6]: 1 |
| COc1ccc(/C=C2\SC(=N)N(c3nccs3)C2=O)cc1 [O21] | YES | 2.05% | 7.8% | 0.03 | 0.04 | 0 | 0 | 0 | 0.74 | 0.94 | 0 | 0 | 0 | 140 | 25.5 | YES | 0 | 0 | 1 | 1 | Luminescence signal for ATP measurement, day-1 Average (WI-38 cells [5]): 460366; Luminescence signal for ATP measurement, day-2 Average (WI-38 cells [5]): 542268; Luminescence signal for ATP measurement, day-3 Average (WI-38 cells [5]): 557236; Luminescence signal for ATP measurement, day-4 Average (WI-38 cells [5]): 677875; Luminescence signal for ATP measurement, day-5 Average (WI-38 cells [5]): 550651; viability at 10 µM (WI-38 cells [5]): 53.6%; D = Triple resistant [6]: 0; S = Sum of Negative scores [6]: 2; C = H2O2- & Cd-resistant [6]: 0 |
| CC1C(=O)C(C)C(c2cc(Cl)ccc2O)NC1c1cc(Cl)ccc1O (stereo not drawn) [O6] | YES | 0.8% | 16.8% | 2.18 | 2.05 | 1 | 1 | 1 | 0.81 | 0.79 | 0 | 0 | 0 | 285 | 22.2 | YES | 0 | 0 | 0 | 0 | cytotoxicity at 10 µM (WI-38 cells [1]; [8]): 4.92%; cytotoxicity at 10 µM (WI-38 cells [1]; [18]): 9.82%; CdCl2-resistant (WI-38 cells [2]): YES; H2O2- & CdCl2-resistant (WI-38 cells [2]): YES; CdCl2-resistant (WI-38 cells [2]; WI-38 cells, 10 μM): YES; H2O2- & CdCl2-resistant (WI-38 cells [2]; [12]): YES; Assay 4: H2O2- & Cd-resistant (WI-38 cells [2]): YES; Assay 2: Cadmium-resistant (WI-38 cells [2]): YES; H2O2-resistance assay, 1st experiment (C. elegans): YES;; D = Triple resistant [6]: 0; S = Sum of Negative scores [6]: 0; C = H2O2- & Cd-resistant [6]: 1 |
| O=C(NCc1cccnc1)/C(=C/c1ccc(-c2ccc(Cl)cc2)o1)S(=O)(=O)c1ccccc1 [Gr-7C] | YES | 0.82% | 12.5% | 1.31 | 0.97 | 0 | 1 | 1 | 1.14 | 1.39 | 0 | 0 | 0 | 0.074 | 8.33 | YES | 0 | 0 | 0 | 1 | cytotoxicity at 10 µM (WI-38 cells [1]; [8]): 2.36%; cytotoxicity at 10 µM (WI-38 cells [1]; [18]): 3.73%; Assay 4: H2O2- & Cd-resistant (WI-38 cells [2]): YES; Assay 2: Cadmium-resistant (WI-38 cells [2]): YES; Luminescence signal for ATP measurement, day-1 Average (WI-38 cells [5]): 378655; Luminescence signal for ATP measurement, day-2 Average (WI-38 cells [5]): 140712; Luminescence signal for ATP measurement, day-3 Average (WI-38 cells [5]): 84446; Luminescence signal for ATP measurement, day-4 Average (WI-38 cells [5]): 72490; Luminescence signal for ATP measurement, day-5 Average (WI-38 cells [5]): 127440; viability at 10 µM (WI-38 cells [5]): 12.4%; D = Triple resistant [6]: 0; S = Sum of Negative scores [6]: 1; C = H2O2- & Cd-resistant [6]: 0 |
